Reference: ChEMBL document CHEMBL3351881, “Chemical constituents isolated from Disporum viridescens leaves and their inhibitory effect on nitric oxide production in BV2 microglial cells” (Bioorg Med Chem Lett, 2014)
Activity calls are given as the source filed them. The calls are words filed in the database; no cut-off is given here.

Key:
BV-2 [1] = experiment: Neuroprotective effect in […] cells assessed as LPS-induced nitric oxide production at 10 to 100 uM incubated for 1 hr prior to LPS challenge measured after 24 hrs by Griess assay; format: functional, cell-based; conditions: Mus musculus
BV-2 [2] = experiment: Inhibition of LPS-induced iNOS protein expression in […] cells at 0.1 uM by Western blotting analysis; format: functional, cell-based
BV-2 [3] = experiment: Inhibition of LPS-induced COX-2 protein expression in […] cells at 0.1 uM by Western blotting analysis; format: functional, cell-based
BV-2 [4] = experiment: Inhibition of LPS-induced ERK phosphorylation in […] cells at 0.1 uM by Western blotting analysis; format: cell-based
[5] = biological target: T1, NF-kappa-B inhibitor alpha (Homo sapiens) (UniProt P25963); experiment: Inhibition of LPS-induced IkB-alpha degradation in […] cells at 0.1 uM by Western blotting analysis; format: cell-based; conditions: BV-2
T1 sequence (whole entry): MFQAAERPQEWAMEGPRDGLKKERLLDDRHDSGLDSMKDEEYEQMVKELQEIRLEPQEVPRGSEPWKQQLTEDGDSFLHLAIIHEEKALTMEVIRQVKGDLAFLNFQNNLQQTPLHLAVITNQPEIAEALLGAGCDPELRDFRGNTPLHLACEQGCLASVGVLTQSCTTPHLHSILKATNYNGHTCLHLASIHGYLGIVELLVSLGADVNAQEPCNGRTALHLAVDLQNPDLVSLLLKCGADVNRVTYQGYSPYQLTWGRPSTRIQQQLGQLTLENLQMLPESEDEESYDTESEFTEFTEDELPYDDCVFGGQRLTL

[6] = tested on: c-Jun N-terminal kinase, JNK (Mus musculus); experiment: Inhibition of LPS-induced JNK phosphorylation in mouse BV2 cells at 0.1 uM by Western blotting analysis; conditions: BV-2
[7] = tested on: MAP kinase p38 (Mus musculus); experiment: Inhibition of LPS-induced p38 phosphorylation in mouse BV2 cells at 0.1 uM by Western blotting analysis; conditions: BV-2

Row | inhibition [5] | inhibition [6] | inhibition [7] | Compound | Activity (BV-2 [1]) | inhibition (BV-2 [2]) | inhibition (BV-2 [3]) | inhibition (BV-2 [4])
1 | – | – | – | COc1cc([C@H]2Oc3c(O)cc(CCCO)cc3[C@@H]2CO)ccc1O | Active | Active | Active | –
2 | – | – | – | COc1cc([C@H]2OC[C@@]3(O[C@@H]4O[C@H](CO)[C@@H](O)[C@H](O)[C@H]4O)C2CO[C@@H]3c2ccc(O)c(OC)c2)ccc1O (some centres not stated) | Active | – | – | –
3 | – | – | – | COc1cc([C@H]2Oc3c(OC)cc(CCCO)cc3[C@@H]2CO[C@@H]2O[C@H](CO)[C@@H](O)[C@H](O)[C@H]2O)ccc1O | Active | – | – | –
4 | inactive | Active | Active | COc1cc([C@H]2O[C@H](O)C3C2CO[C@@H]3c2ccc(O)c(OC)c2)ccc1O (some centres not stated) | Active | Active | Active | Active
